This is an account of results in patent US20230107642A1 (Erasca, Inc., priority 2020, published 2023).

Molecules are shown by their SMILES.

The experiment addresses T1, K-Ras G12C (Homo sapiens, UniProt P01116, G12C).
T1 construct: This protein contained 188 amino acids in total, including an N-terminal 6-Histidine tag; made in house; host or cells: E. coli BL21
Put plainly: CAF assay (% CAF; method in Example 7, not in this part). Format: binding. Conditions: 10 uM compound, 1 h incubation.
As for `C=CC(=O)N1[C@H](C)CN(c2nc(=O)n3c4c(c(-c5cc(Cl)c(F)cc5F)c(Cl)cc24)SC[C@@H](OC)C3)C[C@@H]1C` [Example 530, (3S)-8-((3S,5R)-4-acryloyl-3,5-dimethylpiperazin-1-yl)-10-chloro-11-(5-chloro-2,4-difluorophenyl)-3-methoxy-3,4-dihydro-2H,6H-[1,4]thiazepino[2,3,4-ij]quinazolin-6-one], the “% CAF @ 10 uM, 1h” value worked out at 92%. Turning to `C=CC(=O)N1[C@H](C)CN(c2nc(=O)n3c4c(c(-c5ccc(F)cc5F)c(C(F)(F)F)cc24)SCC2(COC2)C3)C[C@@H]1C` [Example 531, 8′-((3S,5R)-4-Acryloyl-3,5-dimethylpiperazin-1-yl)-11′-(2,4-difluorophenyl)-10′-(trifluoromethyl)-2′H,4′H,6′H-spiro[oxetane-3,3′-[1,4]thiazepino[2,3,4-ij]quinazolin]-6′-one], the “% CAF @ 10 uM, 1h” value worked out at 88.6%.

For `C=CC(=O)N1CCN(c2nc(=O)n3c4c(c(-c5ccc(F)cc5)c(C(F)(F)F)cc24)SC[C@@H](OC)C3)[C@@H](C)C1` [Example 532, (S)-8-((S)-4-acryloyl-2-methylpiperazin-1-yl)-11-(4-fluorophenyl)-3-methoxy-10-(trifluoromethyl)-3,4-dihydro-2H,6H-[1,4]thiazepino[2,3,4-ij]quinazolin-6-one], the “% CAF @ 10 uM, 1h” value was found to be 97%. With `C=CC(=O)N1CCN(c2nc(=O)n3c4c(c(-c5cc(Cl)c(F)cc5F)c(C(F)(F)F)cc24)SC[C@H](OC)C3)[C@@H](C)C1` [Example 533, (3R)-8-((S)-4-acryloyl-2-methylpiperazin-1-yl)-11-(5-chloro-2,4-difluorophenyl)-3-methoxy-10-(trifluoromethyl)-3,4-dihydro-2H,6H-[1,4]thiazepino[2,3,4-ij]quinazolin-6-one], the “% CAF @ 10 uM, 1h” value is recorded as 96%. Take `C=CC(=O)N1CCN(c2nc(=O)n3c4c(c(-c5cc(Cl)c(F)cc5F)c(C(F)(F)F)cc24)SC[C@H](OC)C3)CC1` [Example 534, (3R)-8-(4-acryloylpiperazin-1-yl)-11-(5-chloro-2,4-difluorophenyl)-3-methoxy-10-(trifluoromethyl)-3,4-dihydro-2H,6H-[1,4]thiazepino[2,3,4-ij]quinazolin-6-one]: the “% CAF @ 10 uM, 1h” value worked out at 97%. As for `C=CC(=O)N1[C@H](C)CN(c2nc(=O)n3c4c(c(-c5cc(Cl)c(F)cc5F)c(C(F)(F)F)cc24)SC[C@H](OC)C3)C[C@@H]1C` [Example 535, (3R)-8-((3S,5R)-4-acryloyl-3,5-dimethylpiperazin-1-yl)-11-(5-chloro-2,4-difluorophenyl)-3-methoxy-10-(trifluoromethyl)-3,4-dihydro-2H,6H-[1,4]thiazepino[2,3,4-ij]quinazolin-6-one], the figure is 96%; as for `C=CC(=O)N1CCN(c2nc(=O)n3c4c(c(-c5ccc(F)cc5)c(Cl)cc24)SC[C@@H](OC)C3)CC1` [Example 536, (S)-8-(4-acryloylpiperazin-1-yl)-10-chloro-11-(4-fluorophenyl)-3-methoxy-3,4-dihydro-2H,6H-[1,4]thiazepino[2,3,4-ij]quinazolin-6-one], 97%.

As for `C=CC(=O)N1CCN(c2nc(=O)n3c4c(c(-c5ccc(F)cc5)c(Cl)cc24)SC[C@@H](OC)C3)[C@@H](C)C1` [Example 537, (S)-8-((S)-4-acryloyl-2-methylpiperazin-1-yl)-10-chloro-11-(4-fluorophenyl)-3-methoxy-3,4-dihydro-2H,6H-[1,4]thiazepino[2,3,4-ij]quinazolin-6-one], the “% CAF @ 10 uM, 1h” value is reported as 96%. For `C=CC(=O)N1CCN(c2nc(=O)n3c4c(c(-c5cc(Cl)c(F)cc5F)c(Cl)cc24)SC[C@H](OC)C3)CC1` [Example 538, (3R)-8-(4-acryloylpiperazin-1-yl)-10-chloro-11-(5-chloro-2,4-difluorophenyl)-3-methoxy-3,4-dihydro-2H,6H-[1,4]thiazepino[2,3,4-ij]quinazolin-6-one], the “% CAF @ 10 uM, 1h” value is 97%.

Regarding `C=CC(=O)N1[C@H](C)CN(c2nc(=O)n3c4c(c(-c5cc(Cl)c(F)cc5F)c(C(F)(F)F)cc24)SC[C@@H](OC)C3)C[C@@H]1C` [Example 539, (3S)-8-((3S,5R)-4-acryloyl-3,5-dimethylpiperazin-1-yl)-11-(5-chloro-2,4-difluorophenyl)-3-methoxy-10-(trifluoromethyl)-3,4-dihydro-2H,6H-[1,4]thiazepino[2,3,4-ij]quinazolin-6-one], the “% CAF @ 10 uM, 1h” value was determined as 96%.

For the molecule `C=CC(=O)N1CCN(c2nc(=O)n3c4c(c(-c5ccc(F)cc5)c(Cl)cc24)SC[C@H](OC)C3)CC1` [Example 540, (R)-8-(4-acryloylpiperazin-1-yl)-10-chloro-11-(4-fluorophenyl)-3-methoxy-3,4-dihydro-2H,6H-[1,4]thiazepino[2,3,4-ij]quinazolin-6-one], the “% CAF @ 10 uM, 1h” value was found to be 98%. With `C=CC(=O)N1CCN(c2nc(=O)n3c4c(c(-c5cc(Cl)c(F)cc5F)c(Cl)cc24)SC[C@H](OC)C3)[C@@H](C)C1` [Example 541, (3R)-8-((S)-4-acryloyl-2-methylpiperazin-1-yl)-10-chloro-11-(5-chloro-2,4-difluorophenyl)-3-methoxy-3,4-dihydro-2H,6H-[1,4]thiazepino[2,3,4-ij]quinazolin-6-one], the “% CAF @ 10 uM, 1h” value came to 96%.

With `C=CC(=O)N1[C@H](C)CN(c2nc(=O)n3c4c(c(-c5cc(Cl)c(F)cc5F)c(Cl)cc24)SC[C@H](OC)C3)C[C@@H]1C` [Example 542, (3R)-8-((3S,5R)-4-acryloyl-3,5-dimethylpiperazin-1-yl)-10-chloro-11-(5-chloro-2,4-difluorophenyl)-3-methoxy-3,4-dihydro-2H,6H-[1,4]thiazepino[2,3,4-ij]quinazolin-6-one], the “% CAF @ 10 uM, 1h” value came to 96%. Consider `C=CC(=O)N1CCN(c2nc(=O)n3c4c(c(-c5cc(Cl)c(F)cc5F)c(Cl)cc24)SC[C@@H](OC)C3)CC1` [Example 543, (3S)-8-(4-acryloylpiperazin-1-yl)-10-chloro-11-(5-chloro-2,4-difluorophenyl)-3-methoxy-3,4-dihydro-2H,6H-[1,4]thiazepino[2,3,4-ij]quinazolin-6-one], for which the “% CAF @ 10 uM, 1h” value is recorded as 97%.

Take `C=CC(=O)N1C[C@H](C)N(c2nc(=O)n3c4c(c(-c5ccc(F)cc5F)c(Cl)cc24)SC[C@@H]3CN2CCN(CC(F)F)CC2)C[C@H]1C` [Example 550, (3S)-7-((2S,5R)-4-acryloyl-2,5-dimethylpiperazin-1-yl)-9-chloro-3-((4-(2,2-difluoroethyl)piperazin-1-yl)methyl)-10-(2,4-difluorophenyl)-2H-[1,4]thiazino[2,3,4-ij]quinazolin-5(3H)-one]: the “% CAF @ 10 uM, 1h” value was 91.6%. As to `C=CC(=O)N1C[C@H](C)N(c2nc(=O)n3c4c(c(-c5ccc(F)cc5F)c(Cl)cc24)SC[C@@H]3CN2CCN(C3CC3)CC2)C[C@H]1C` [Example 551, (3S)-7-((2S,5R)-4-acryloyl-2,5-dimethylpiperazin-1-yl)-9-chloro-3-((4-cyclopropylpiperazin-1-yl)methyl)-10-(2,4-difluorophenyl)-2H-[1,4]thiazino[2,3,4-ij]quinazolin-5(3H)-one], the “% CAF @ 10 uM, 1h” value is on record as 53.4%.
